Tests used:
Nitric oxide synthase 3 = biological target: T1, Nitric oxide synthase 3 (Bos taurus, UniProt P29473); experiment: Compound was tested for binding affinity against Endothelial nitric oxide synthase
T1 sequence (P29473 whole entry): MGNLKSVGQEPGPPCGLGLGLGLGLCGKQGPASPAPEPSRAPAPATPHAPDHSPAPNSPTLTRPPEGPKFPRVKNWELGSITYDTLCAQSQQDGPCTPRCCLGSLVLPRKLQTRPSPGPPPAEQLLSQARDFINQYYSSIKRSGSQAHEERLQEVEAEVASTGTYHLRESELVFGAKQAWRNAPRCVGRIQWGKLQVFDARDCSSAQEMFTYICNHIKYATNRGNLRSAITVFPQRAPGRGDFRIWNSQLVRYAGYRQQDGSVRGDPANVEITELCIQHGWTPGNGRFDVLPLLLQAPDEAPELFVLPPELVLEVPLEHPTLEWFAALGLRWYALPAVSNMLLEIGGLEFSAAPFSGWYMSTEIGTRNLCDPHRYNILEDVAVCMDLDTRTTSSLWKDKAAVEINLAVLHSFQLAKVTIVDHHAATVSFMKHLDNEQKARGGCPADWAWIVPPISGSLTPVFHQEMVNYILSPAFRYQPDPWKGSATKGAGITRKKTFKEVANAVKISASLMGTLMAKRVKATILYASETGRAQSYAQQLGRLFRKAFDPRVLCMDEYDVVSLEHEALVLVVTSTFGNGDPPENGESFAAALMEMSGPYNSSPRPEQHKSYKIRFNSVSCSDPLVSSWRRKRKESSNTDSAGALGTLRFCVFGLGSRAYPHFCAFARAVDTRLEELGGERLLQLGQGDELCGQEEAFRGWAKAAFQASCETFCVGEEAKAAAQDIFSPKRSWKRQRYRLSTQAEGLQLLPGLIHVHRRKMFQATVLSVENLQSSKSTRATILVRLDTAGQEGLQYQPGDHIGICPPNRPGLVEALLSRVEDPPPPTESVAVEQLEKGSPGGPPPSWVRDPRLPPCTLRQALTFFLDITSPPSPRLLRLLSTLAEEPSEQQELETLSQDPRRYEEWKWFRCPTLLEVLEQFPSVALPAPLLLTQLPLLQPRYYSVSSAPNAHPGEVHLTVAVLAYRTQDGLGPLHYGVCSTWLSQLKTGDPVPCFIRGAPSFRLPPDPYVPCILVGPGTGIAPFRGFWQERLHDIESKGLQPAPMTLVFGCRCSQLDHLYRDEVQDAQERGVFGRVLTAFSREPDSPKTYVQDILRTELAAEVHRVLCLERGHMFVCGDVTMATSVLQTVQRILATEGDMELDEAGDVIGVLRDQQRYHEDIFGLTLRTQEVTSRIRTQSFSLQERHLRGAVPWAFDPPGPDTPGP

[1] = biological target: T2, Nitric oxide synthase, inducible (Mus musculus, UniProt P29477); experiment: Compound was tested for binding affinity against recombinant inducible nitric oxide synthase (iNOS) from mouse
T2 sequence (P29477 whole entry): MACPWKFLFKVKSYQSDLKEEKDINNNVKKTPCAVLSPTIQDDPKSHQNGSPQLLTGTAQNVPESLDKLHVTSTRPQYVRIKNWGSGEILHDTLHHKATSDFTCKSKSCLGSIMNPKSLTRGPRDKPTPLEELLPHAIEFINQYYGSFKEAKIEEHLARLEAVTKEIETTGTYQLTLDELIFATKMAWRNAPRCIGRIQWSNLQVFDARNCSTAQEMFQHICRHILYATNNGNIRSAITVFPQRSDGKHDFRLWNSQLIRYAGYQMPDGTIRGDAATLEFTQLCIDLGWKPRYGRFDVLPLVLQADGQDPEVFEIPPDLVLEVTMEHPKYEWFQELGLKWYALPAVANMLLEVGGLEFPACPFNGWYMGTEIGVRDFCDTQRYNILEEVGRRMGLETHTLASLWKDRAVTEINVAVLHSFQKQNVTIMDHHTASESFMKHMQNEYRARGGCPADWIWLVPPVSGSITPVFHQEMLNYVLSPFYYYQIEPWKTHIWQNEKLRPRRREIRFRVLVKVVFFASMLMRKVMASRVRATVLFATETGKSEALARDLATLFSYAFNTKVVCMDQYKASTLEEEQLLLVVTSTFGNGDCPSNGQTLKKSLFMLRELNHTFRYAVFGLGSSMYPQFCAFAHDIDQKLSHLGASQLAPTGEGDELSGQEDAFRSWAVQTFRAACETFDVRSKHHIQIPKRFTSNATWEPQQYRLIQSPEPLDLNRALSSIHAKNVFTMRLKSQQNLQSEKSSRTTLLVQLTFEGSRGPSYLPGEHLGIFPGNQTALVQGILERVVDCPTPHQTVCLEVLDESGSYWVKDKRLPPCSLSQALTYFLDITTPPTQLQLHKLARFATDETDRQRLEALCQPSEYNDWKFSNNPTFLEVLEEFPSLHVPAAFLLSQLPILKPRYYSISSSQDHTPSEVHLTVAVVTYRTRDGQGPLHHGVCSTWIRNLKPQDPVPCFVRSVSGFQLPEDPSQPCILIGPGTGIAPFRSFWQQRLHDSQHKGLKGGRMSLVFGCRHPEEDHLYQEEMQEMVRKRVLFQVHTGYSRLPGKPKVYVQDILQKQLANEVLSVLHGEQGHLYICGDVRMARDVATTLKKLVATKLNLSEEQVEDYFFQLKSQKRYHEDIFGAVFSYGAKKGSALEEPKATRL

Row | Compound | Ki (Nitric oxide synthase 3) [µM] | Ki [1] [µM]
1 | C=CCNC(=N)NCCCC(N)C(C)=O (stereo unspecified) | 3.1 | 2.1
2 | CCC/N=C(/N)NCCCC(N)C(=O)O (stereo unspecified) | 8.5 | 
3 | CC/N=C(/N)NCCCC(N)C(=O)O (stereo unspecified) | 9.5 | 6.1
4 | C#CC/N=C(/N)NCCCC(N)C(=O)O (stereo unspecified) |  | 0.62

From ChEMBL document CHEMBL1130243, “Potent and selective inhibition of neuronal nitric oxide synthase by N omega-propyl-L-arginine” (J Med Chem, 1997)
